Here are results for ten compounds from publication PMC8976073 (Nature Communications, 2022).

Test [1] addresses T1, FPR2 (Homo sapiens, UniProt P25090).
T1 construct: expressed in transfected cells; host or cells: HEK293F cells, pTT5 vector, co-transfected with GαΔ6qi4myr (1:2 w/w)
T1 sequence (P25090 1-351): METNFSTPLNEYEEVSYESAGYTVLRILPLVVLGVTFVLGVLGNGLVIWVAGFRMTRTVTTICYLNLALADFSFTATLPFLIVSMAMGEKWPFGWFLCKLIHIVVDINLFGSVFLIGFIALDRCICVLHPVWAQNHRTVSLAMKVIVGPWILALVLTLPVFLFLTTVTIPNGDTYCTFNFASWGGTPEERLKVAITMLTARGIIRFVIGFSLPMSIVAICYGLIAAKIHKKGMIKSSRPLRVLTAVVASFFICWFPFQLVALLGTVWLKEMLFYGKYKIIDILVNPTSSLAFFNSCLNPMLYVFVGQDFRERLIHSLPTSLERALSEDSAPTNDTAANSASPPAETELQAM
The test is described as follows: Competition binding: inhibition of WK(FITC)YMVm binding to FPR2 (wild type and mutants), HEK293F cells. As to conditions: FPR2 WT, mean ± SEM. The protocol: (§1) The genes of wild-type FPR1 and FPR2 and mutants with a Flag tag at the N termini were cloned into pTT5 vector (Invitrogen) and expressed in HEK293F cells (Invitrogen). Cells were harvested 48 h post transfection with 1 μg ml^−1 plasmid. Cell-surface expression of the receptors was measured by mixing 10 μl cells with 15 μl of TBS buffer supplemented with 4% BSA, 20% (v/v) viability-staining solution 7-AAD (Invitrogen, Cat#00-6993-50), and 0.1% (v/v) anti-FLAG M2-FITC antibody (Sigma, Cat#F4049) at 4 °C for 20 min. After incubation, 175 μl of TBS buffer was added and the fluorescent signal was measured using a flow-cytometry reader (Guava easyCyte HT, Millipore). Then, the cells were washed and resuspended to a final concentration of 1 × 10^6 cells per ml in Hanks’ Balanced Salt Solution (HBSS) buffer supplemented with 0.5% bovine serum albumin (BSA) and 20 mM HEPES, pH 7.4.
(§2) The mean fluorescent intensity of each well was then read by the FCM reader. Total binding and nonspecific binding were measured in the absence and presence of the unlabeled ligand (200 μM WKYMVm), respectively. […] Mean fluorescent-intensity values were measured by flow cytometry. Data were analyzed using Prism 8.0 (GraphPad software).

The target of test [2] is T2, FPR2 (Homo sapiens, UniProt P25090, S211L).
T2 construct: expressed in transfected cells; host or cells: HEK293F cells, pTT5 vector
The test is described as above. As to conditions: FPR2 Construct 2, mean ± SEM. Here is the method: as §1, §2

Test [3] has as its target T1, FPR2. The experiment in a line: Inositol-phosphate (IP) accumulation assay, FPR2 (wild type and mutants) with chimeric GαΔ6qi4myr in HEK293F cells. It is filed as cell-based. The note with it: FPR2 WT; mean ± SEM; SEM. The protocol:
Flag-tagged wild-type FPR1 and FPR2 and mutants were cloned into the pTT5 vector and expressed in HEK293F cells. Cells were cotransfected with the plasmids of receptor and a chimeric Gα protein GαΔ6qi4myr, which redirects the Gαi signaling pathway to the Gαq phospholipase-C pathway, at a ratio of 1:2 (w/w), and were harvested 48 h post transfection. The cell-surface expression was measured as described above.
The IP-One Gq assay kit (Cisbio Bioassays, 62IPAPEB) was used to measure the peptide agonist-induced IP production. […] Then, the cells were supplemented with 3 μl cryptate-labeled anti-IP1 monoclonal antibody (1:20 diluted in lysis and detection buffer) and 3 μl d2-labeled IP1, and incubated at room temperature for another 1 h. […] The accumulation of IP1, EC50, and pEC50 were calculated using nonlinear regression (curve fit) according to a standard dose–response curve in GraphPad Prism 8.0 (GraphPad software).

Test [4] relates to FPR1. The experiment in a line: Competition binding: inhibition of WK(FITC)YMVm binding to FPR1 (wild type and mutants), HEK293F cells. Also noted: species or system human. As to conditions: FPR1 F81L, F102H, Y257F and their combination. The protocol: as §1, §2
Test [5] has as its system FPR2. The note with it: cited from earlier work. An excerpt:
The role of these residues in determining ligand selectivity was investigated by mutagenesis studies.

Where a SMILES comes first, the peptide text is derived from it. The star is where a group is joined. For = O=C*

T2 sequence (P25090 with tags, fused parts or gaps S211L): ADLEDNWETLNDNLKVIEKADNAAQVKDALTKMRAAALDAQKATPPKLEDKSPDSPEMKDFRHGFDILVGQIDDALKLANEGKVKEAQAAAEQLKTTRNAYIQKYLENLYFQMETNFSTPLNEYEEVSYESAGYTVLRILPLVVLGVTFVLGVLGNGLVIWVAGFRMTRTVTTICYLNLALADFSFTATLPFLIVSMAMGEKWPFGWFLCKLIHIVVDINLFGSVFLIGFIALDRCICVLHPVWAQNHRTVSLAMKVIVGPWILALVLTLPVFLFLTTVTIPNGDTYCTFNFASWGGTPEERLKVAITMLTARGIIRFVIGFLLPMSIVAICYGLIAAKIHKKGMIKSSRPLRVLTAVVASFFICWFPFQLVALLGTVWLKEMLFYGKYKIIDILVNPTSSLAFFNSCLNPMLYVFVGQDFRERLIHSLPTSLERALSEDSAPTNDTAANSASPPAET

A word on the Ki: it is the dissociation constant of the complex between target and ligand, obtained from inhibition or displacement. Consider `CC[C@H](C)[C@H](NC(=O)[C@H](CCC(=O)O)NC(=O)[C@H](CO)NC(=O)[C@@H](NC(=O)[C@H](CC(C)C)NC(=O)[C@H](CC(C)C)NC(=O)[C@H](CC(C)C)NC(=O)[C@H](CC(C)C)NC(=O)[C@H](CS)NC(=O)[C@H](CO)NC(=O)[C@H](Cc1ccccc1)NC(=O)CNC(=O)[C@H](CCCNC(=N)N)NC(=O)[C@@H]1CCCN1C(=O)[C@H](Cc1c[nH]c2ccccc12)NC(=O)[C@H](CCSC)NC=O)[C@@H](C)O)C(=O)N[C@@H](CC(=O)O)C(=O)N[C@@H](CC(C)C)C(=O)N1CCC[C@H]1C(=O)N[C@H](C(=O)N[C@@H](CCCCN)C(=O)N[C@@H](CCCNC(=N)N)C(=O)N[C@@H](CCCNC(=N)N)C(=O)N[C@@H](C)C(=O)O)C(C)C` [A2W] (For-MWPRGFSCLLLLTSEIDLPVKRRA-OH), for which affinity in test [1] was put at a Ki of 46.8 nM.
Turning to `CC[C@H](C)[C@H](NC(=O)[C@H](CCC(=O)O)NC(=O)[C@H](CO)NC(=O)[C@@H](NC(=O)[C@H](CC(C)C)NC(=O)[C@H](CC(C)C)NC(=O)[C@H](CC(C)C)NC(=O)[C@H](CC(C)C)NC(=O)[C@H](CS)NC(=O)[C@H](CO)NC(=O)[C@H](C)NC(=O)CNC(=O)[C@H](CCCNC(=N)N)NC(=O)[C@@H]1CCCN1C(=O)[C@H](C)NC(=O)[C@H](CCSC)NC=O)[C@@H](C)O)C(=O)N[C@@H](CC(=O)O)C(=O)N[C@@H](CC(C)C)C(=O)N1CCC[C@H]1C(=O)N[C@H](C(=O)N[C@@H](CCCCN)C(=O)N[C@@H](CCCNC(=N)N)C(=O)N[C@@H](CCCNC(=N)N)C(=O)N[C@@H](C)C(=O)O)C(C)C` [F6A] (For-MAPRGASCLLLLTSEIDLPVKRRA-OH), in test [1], the affinity, expressed as Ki, was 100 nM.
The same measure, in the same setting: the value for `CC[C@H](C)[C@H](NC(=O)[C@H](CCC(=O)O)NC(=O)[C@H](CO)NC(=O)[C@@H](NC(=O)[C@H](CC(C)C)NC(=O)[C@H](C)NC(=O)[C@H](CC(C)C)NC(=O)[C@H](CC(C)C)NC(=O)[C@H](CS)NC(=O)[C@H](CO)NC(=O)[C@H](Cc1ccccc1)NC(=O)CNC(=O)[C@H](CCCNC(=N)N)NC(=O)[C@@H]1CCCN1C(=O)[C@H](C)NC(=O)[C@H](CCSC)NC=O)[C@@H](C)O)C(=O)N[C@@H](CC(=O)O)C(=O)N[C@@H](CC(C)C)C(=O)N1CCC[C@H]1C(=O)N[C@H](C(=O)N[C@@H](CCCCN)C(=O)N[C@@H](CCCNC(=N)N)C(=O)N[C@@H](CCCNC(=N)N)C(=O)N[C@@H](C)C(=O)O)C(C)C` [L11A] (For-MAPRGFSCLLALTSEIDLPVKRRA-OH) was 631 nM; that for `CC[C@H](C)[C@H](NC(=O)[C@H](CCC(=O)O)NC(=O)[C@H](CO)NC(=O)[C@@H](NC(=O)[C@H](C)NC(=O)[C@H](CC(C)C)NC(=O)[C@H](CC(C)C)NC(=O)[C@H](CC(C)C)NC(=O)[C@H](CS)NC(=O)[C@H](CO)NC(=O)[C@H](Cc1ccccc1)NC(=O)CNC(=O)[C@H](CCCNC(=N)N)NC(=O)[C@@H]1CCCN1C(=O)[C@H](C)NC(=O)[C@H](CCSC)NC=O)[C@@H](C)O)C(=O)N[C@@H](CC(=O)O)C(=O)N[C@@H](CC(C)C)C(=O)N1CCC[C@H]1C(=O)N[C@H](C(=O)N[C@@H](CCCCN)C(=O)N[C@@H](CCCNC(=N)N)C(=O)N[C@@H](CCCNC(=N)N)C(=O)N[C@@H](C)C(=O)O)C(C)C` [L12A] (For-MAPRGFSCLLLATSEIDLPVKRRA-OH) was 832 nM; that for `CC[C@H](C)[C@H](NC(=O)[C@H](CCC(=O)O)NC(=O)[C@H](CO)NC(=O)[C@@H](NC(=O)[C@H](CC(C)C)NC(=O)[C@H](CC(C)C)NC(=O)[C@H](CC(C)C)NC(=O)[C@H](CC(C)C)NC(=O)[C@H](CS)NC(=O)[C@H](CO)NC(=O)[C@H](Cc1ccccc1)NC(=O)CNC(=O)[C@H](CCCNC(=N)N)NC(=O)[C@H](C)NC(=O)[C@H](C)NC(=O)[C@H](CCSC)NC=O)[C@@H](C)O)C(=O)N[C@@H](CC(=O)O)C(=O)N[C@@H](CC(C)C)C(=O)N1CCC[C@H]1C(=O)N[C@H](C(=O)N[C@@H](CCCCN)C(=O)N[C@@H](CCCNC(=N)N)C(=O)N[C@@H](CCCNC(=N)N)C(=O)N[C@@H](C)C(=O)O)C(C)C` [P3A] (For-MAARGFSCLLLLTSEIDLPVKRRA-OH) was 813 nM.
For `CC[C@H](C)[C@H](NC(=O)[C@H](CCC(=O)O)NC(=O)[C@H](CO)NC(=O)[C@@H](NC(=O)[C@H](CC(C)C)NC(=O)[C@H](CC(C)C)NC(=O)[C@H](CC(C)C)NC(=O)[C@H](CC(C)C)NC(=O)[C@H](CS)NC(=O)[C@H](CO)NC(=O)[C@H](Cc1ccccc1)NC(=O)CNC(=O)[C@H](C)NC(=O)[C@@H]1CCCN1C(=O)[C@H](C)NC(=O)[C@H](CCSC)NC=O)[C@@H](C)O)C(=O)N[C@@H](CC(=O)O)C(=O)N[C@@H](CC(C)C)C(=O)N1CCC[C@H]1C(=O)N[C@H](C(=O)N[C@@H](CCCCN)C(=O)N[C@@H](CCCNC(=N)N)C(=O)N[C@@H](CCCNC(=N)N)C(=O)N[C@@H](C)C(=O)O)C(C)C` [R4A] (For-MAPAGFSCLLLLTSEIDLPVKRRA-OH), the inhibitory constant (Ki) in test [1] is 282 nM.
As a reminder, the EC50 is the concentration giving half of the maximal effect. High values mean weaker potency, low ones greater potency. In the case of `CC[C@H](C)[C@H](NC(=O)[C@H](CC(N)=O)NC(=O)[C@@H](NC(=O)[C@H](Cc1ccccc1)NC(=O)[C@H](Cc1ccc(O)cc1)NC(=O)[C@H](CCSC)NC=O)[C@@H](C)CC)C(=O)N[C@@H](CC(C)C)C(=O)N[C@H](C(=O)N[C@@H](CC(C)C)C(=O)O)[C@@H](C)O` [fM9] (For-MYFINILTL-OH), the results for the inhibitory constant (Ki) in test [1] and in test [2] were 1410 nM and 2630 nM, respectively. This compound also gave a concentration for a half-maximal effect (EC50) in test [3] of 813 nM.
With `CSCC[C@H](NC=O)C(=O)N[C@@H](CC(C)C)C(=O)N[C@@H](Cc1ccccc1)C(=O)O` [fMLF, N-formyl–Met–Leu–Phe], the “effect of mutations on binding affinity (in words)” value in test [4] was “little effect on the binding affinity”. Further, in test [5], the “agonism at FPR2 (in words)” value is “weak agonist”.
In the case of Humanin [HN], in test [5], the “agonistic activity FPR2 versus FPR1 (in words)” value was “much higher agonistic activity at FPR2 than at FPR1” and the “fold higher binding affinity to FPR2 than Aβ42” value is on record as “over 15 fold”.
Turning to “fMLFK [formylated tetrapeptide with a basic C-terminal residue]”, the “binding to FPR2 (in words)” value in test [5] (compared with fMLFE) is “more favorable for binding to FPR2”.
